Tested on: plants
Assay: Test D post-emergence, other plants of Tables D2 and D4
Type: in vivo
Conditions: for STEME damage rating (100=total damage to plant; 0=no damage to plant) / VERPE damage rating (100=total damage to plant; 0=no damage to plant): "Cereals" Postemergent, evaluated after 15 d; for damage to plant (100=total damage to plant; 0=no damage to plant), ABUTH / damage to plant (100=total damage to plant; 0=no damage to plant), AMARE / damage to plant (100=total damage to plant; 0=no damage to plant), BIDPI / damage to plant (100=total damage to plant; 0=no damage to plant), BRAPL / damage to plant (100=total damage to plant; 0=no damage to plant), CYPES / damage to plant (100=total damage to plant; 0=no damage to plant), DIGSA / damage to plant (100=total damage to plant; 0=no damage to plant), ECHCG / damage to plant (100=total damage to plant; 0=no damage to plant), ELEIN / damage to plant (100=total damage to plant; 0=no damage to plant), EPHHL / damage to plant (100=total damage to plant; 0=no damage to plant), GLXMA / damage to plant (100=total damage to plant; 0=no damage to plant), IPOHE / damage to plant (100=total damage to plant; 0=no damage to plant), ORYSA / damage to plant (100=total damage to plant; 0=no damage to plant), PANMI / damage to plant (100=total damage to plant; 0=no damage to plant), SETFA / damage to plant (100=total damage to plant; 0=no damage to plant), SORVU: post-emergence
Summary of the method: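 Seeds treated with herbicide safener; sown in soil; glasshouse, 16 h light, 65% humidity. Sprayed day 1 (pre) or ~day 12 (post). Spray in 0.2% v/v adjuvant. Scored 0–100 damage: 20 DAA pre, 15 d post.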

For `CN1CC(c2cc(C(F)(F)F)n(C)n2)C(C(=O)Nc2cccc(F)n2)C1=O` (racemic) [Compound 24], the “STEME damage rating (100=total damage to plant; 0=no damage to plant)” value (Rates 130) was 0, the “STEME damage rating (100=total damage to plant; 0=no damage to plant)” value (Rates 250) was 0 and the “STEME damage rating (100=total damage to plant; 0=no damage to plant)” value (Rates 500) was 0. For the same compound, the “VERPE damage rating (100=total damage to plant; 0=no damage to plant)” value (Rates 130) was 0, the “VERPE damage rating (100=total damage to plant; 0=no damage to plant)” value (Rates 250) was 0 and the “VERPE damage rating (100=total damage to plant; 0=no damage to plant)” value (Rates 500) was 20. For the same compound, the “damage to plant (100=total damage to plant; 0=no damage to plant), ABUTH” value (rate 130, evaluated after 15 d) was 0, the “damage to plant (100=total damage to plant; 0=no damage to plant), ABUTH” value (rate 250, evaluated after 15 d) was 0 and the “damage to plant (100=total damage to plant; 0=no damage to plant), ABUTH” value (rate 500, evaluated after 15 d) was 10. The “damage to plant (100=total damage to plant; 0=no damage to plant), AMARE” value (rate 130, evaluated after 15 d) was 0, the “damage to plant (100=total damage to plant; 0=no damage to plant), AMARE” value (rate 250, evaluated after 15 d) was 0 and the “damage to plant (100=total damage to plant; 0=no damage to plant), AMARE” value (rate 500, evaluated after 15 d) was 0. The “damage to plant (100=total damage to plant; 0=no damage to plant), BIDPI” value (rate 130, evaluated after 15 d) was 0, the “damage to plant (100=total damage to plant; 0=no damage to plant), BIDPI” value (rate 250, evaluated after 15 d) was 0 and the “damage to plant (100=total damage to plant; 0=no damage to plant), BIDPI” value (rate 500, evaluated after 15 d) was 0. For the same compound, the “damage to plant (100=total damage to plant; 0=no damage to plant), BRAPL” value (rate 130, evaluated after 15 d) was 0, the “damage to plant (100=total damage to plant; 0=no damage to plant), BRAPL” value (rate 250, evaluated after 15 d) was 40 and the “damage to plant (100=total damage to plant; 0=no damage to plant), BRAPL” value (rate 500, evaluated after 15 d) was 50. For the same compound, the “damage to plant (100=total damage to plant; 0=no damage to plant), CYPES” value (rate 130, evaluated after 15 d) was 0, the “damage to plant (100=total damage to plant; 0=no damage to plant), CYPES” value (rate 250, evaluated after 15 d) was 0 and the “damage to plant (100=total damage to plant; 0=no damage to plant), CYPES” value (rate 500, evaluated after 15 d) was 10. The “damage to plant (100=total damage to plant; 0=no damage to plant), DIGSA” value (rate 130, evaluated after 15 d) was 0, the “damage to plant (100=total damage to plant; 0=no damage to plant), DIGSA” value (rate 250, evaluated after 15 d) was 0 and the “damage to plant (100=total damage to plant; 0=no damage to plant), DIGSA” value (rate 500, evaluated after 15 d) was 0. The “damage to plant (100=total damage to plant; 0=no damage to plant), ECHCG” value (rate 130, evaluated after 15 d) was 0, the “damage to plant (100=total damage to plant; 0=no damage to plant), ECHCG” value (rate 250, evaluated after 15 d) was 0 and the “damage to plant (100=total damage to plant; 0=no damage to plant), ECHCG” value (rate 500, evaluated after 15 d) was 0. The “damage to plant (100=total damage to plant; 0=no damage to plant), ELEIN” value (rate 130, evaluated after 15 d) was 0, the “damage to plant (100=total damage to plant; 0=no damage to plant), ELEIN” value (rate 250, evaluated after 15 d) was 0 and the “damage to plant (100=total damage to plant; 0=no damage to plant), ELEIN” value (rate 500, evaluated after 15 d) was 0. The “damage to plant (100=total damage to plant; 0=no damage to plant), EPHHL” value (rate 130, evaluated after 15 d) was 0, the “damage to plant (100=total damage to plant; 0=no damage to plant), EPHHL” value (rate 250, evaluated after 15 d) was 0 and the “damage to plant (100=total damage to plant; 0=no damage to plant), EPHHL” value (rate 500, evaluated after 15 d) was 20. For the same compound, the “damage to plant (100=total damage to plant; 0=no damage to plant), GLXMA” value (rate 130, evaluated after 15 d) was 0, the “damage to plant (100=total damage to plant; 0=no damage to plant), GLXMA” value (rate 250, evaluated after 15 d) was 0 and the “damage to plant (100=total damage to plant; 0=no damage to plant), GLXMA” value (rate 500, evaluated after 15 d) was 10. The “damage to plant (100=total damage to plant; 0=no damage to plant), IPOHE” value (rate 130, evaluated after 15 d) was 0, the “damage to plant (100=total damage to plant; 0=no damage to plant), IPOHE” value (rate 250, evaluated after 15 d) was 0 and the “damage to plant (100=total damage to plant; 0=no damage to plant), IPOHE” value (rate 500, evaluated after 15 d) was 10. The “damage to plant (100=total damage to plant; 0=no damage to plant), ORYSA” value (rate 130, evaluated after 15 d) was 0, the “damage to plant (100=total damage to plant; 0=no damage to plant), ORYSA” value (rate 250, evaluated after 15 d) was 0 and the “damage to plant (100=total damage to plant; 0=no damage to plant), ORYSA” value (rate 500, evaluated after 15 d) was 10. The “damage to plant (100=total damage to plant; 0=no damage to plant), PANMI” value (rate 130, evaluated after 15 d) was 0, the “damage to plant (100=total damage to plant; 0=no damage to plant), PANMI” value (rate 250, evaluated after 15 d) was 0 and the “damage to plant (100=total damage to plant; 0=no damage to plant), PANMI” value (rate 500, evaluated after 15 d) was 10. The “damage to plant (100=total damage to plant; 0=no damage to plant), SETFA” value (rate 130, evaluated after 15 d) was 0, the “damage to plant (100=total damage to plant; 0=no damage to plant), SETFA” value (rate 250, evaluated after 15 d) was 0 and the “damage to plant (100=total damage to plant; 0=no damage to plant), SETFA” value (rate 500, evaluated after 15 d) was 10. For the same compound, the “damage to plant (100=total damage to plant; 0=no damage to plant), SORVU” value (rate 130, evaluated after 15 d) was 0, the “damage to plant (100=total damage to plant; 0=no damage to plant), SORVU” value (rate 250, evaluated after 15 d) was 0 and the “damage to plant (100=total damage to plant; 0=no damage to plant), SORVU” value (rate 500, evaluated after 15 d) was 0.
